# Results taken from patent US11214803B2, “Modulators of YAP1 expression” (Ionis Pharmaceuticals, Inc., priority 2019, dated 2022).
# Where “and” joins values, the source holds several entries; their conditions need not be identical. Equal values may be shown once. Strand notation (5' to 3'): a small letter for the sugar, then the base; units joined by * are phosphorothioate-linked, units joined directly phosphodiester-linked; [ ] holds rarer units or linkages, { } end groups; capitals alone tell only the bases. k = constrained ethyl (cEt); [5mC] = 5-methylcytosine; d = 2'-deoxy (DNA)
# Assays:
# Yap1 mRNA [1] = assay: Inhibition of human Yap1 mRNA in epidermoid carcinoma A-431 xenograft tumors (Example 27); format: in vivo; conditions: A-431 xenografts in NCr-Foxn1nu mice, 6-8 hours post final dose, relative to PBS
# Experimental: An epidermoid carcinoma A-431 xenograft tumor model was used to evaluate activity of modified oligonucleotides targeted to human Yap1. Five million A-431 cells in 30% matrigel were implanted subcutaneously into the flanks of female NCr-Foxn1nu mice (from Taconic) at 4-6 weeks of age. When tumors reached an average volume of 40 mm^3, approximately two weeks post-implantation, groups of four mice each were administered at either 25 mg/kg or 50 mg/kg daily with modified oligonucleotides for […] (5 doses). Tumors were collected 6-8 hours post final dose and tested for Yap1 mRNA knockdown by RT-qPCR. Yap1 mRNA levels were measured as previously described using the Human Yap1 primer-probe set RTS4814. Yap1 mRNA levels were normalized to actin-beta content, as measured by primer probe set RTS5002. Results are presented in the tables below as percent control of the amount of Yap1 mRNA relative to PBS treated animals (% control).
# Yap1 mRNA [2] = assay: Dose-dependent inhibition of human Yap1 in SNU-449 cells (Example 9, RTS36584); format: cell-based; conditions: free uptake; for % UTC (Yap1 mRNA): approximately 48 hours; for IC50: linear regression on a log/linear plot
# Outline: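 Read-out was Yap1 mRNA (primer-probe RTS36584) normalised to total RNA by RIBOGREEN, given as % of untreated cells, with IC50 fitted by linear regression of log/linear data. Oligonucleotides were dosed by free uptake to SNU-449 cells, 10,000/well, for ~48 h.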
# Yap1 mRNA [3] = assay: Dose-dependent inhibition of human Yap1 in A-431 cells (Example 24, 11,000 cells per well, RTS36584, normalized to GAPDH); format: cell-based; conditions: free uptake, 48 hours; for Yap1 mRNA, % UTC: RTS36584, normalized to GAPDH; for IC50: linear regression on a log/linear plot
# Experimental: Modified oligonucleotides described in the studies above were tested at various doses in A-431 cells. Cultured A-431 cells at a density of 11,000 cells per well were treated using free uptake with modified oligonucleotides diluted to concentrations described in the tables below. After approximately 48 hours, Yap1 mRNA levels were measured as previously described using the Human Yap1 primer-probe set RTS36584. Yap1 mRNA levels were normalized to GAPDH content, as measured by primer probe set RTS104 (forward sequence […], designated herein as SEQ ID NO.: 17; reverse sequence […], designated herein as SEQ ID NO.: 18; probe sequence […], designated herein as SEQ ID NO.: 19). Results are presented in the tables below as percent control of the amount of Yap1 mRNA relative to untreated control cells (% UTC). IC50s were calculated using a linear regression on a log/linear plot of the data in excel.
# [4] = Cynomolgus monkey tolerability, coagulation (Example 34); format: in vivo; conditions: cynomolgus monkeys, 35 mg/kg subcutaneously, day 44
# Experimental: To evaluate effect of Ionis modified oligonucleotides on coagulation in cynomolgus monkeys, blood samples of approximately 0.9 mL were collected from each of the available study animals on day 44. The samples were collected in tubes containing 3.2% sodium citrate. Coagulation parameters tested include Activated partial thromboplastin time (APTT), prothrombin time (PT) and Figrinogen (FIB).
# [5] = Cynomolgus monkey tolerability, body and organ weight measurements (Example 34); format: in vivo; conditions: cynomolgus monkeys, 35 mg/kg subcutaneously; for Heart weight / Kidney weight / Liver with gallbladder weight / Spleen weight: necropsy; for Terminal Body Weight: prior to necropsy
# Experimental: Cynomolgus monkeys were treated with Ionis modified oligonucleotides selected from studies described in the Examples above. Modified oligonucleotide tolerability was evaluated.
# During the study period, the monkeys were observed twice daily for signs of illness or distress. Any animal experiencing more than momentary or slight pain or distress due to the treatment, injury or illness was treated by the veterinary staff with approved analgesics or agents to relieve the pain after consultation with the Study Director. Any animal in poor health or in a possible moribund condition was identified for further monitoring and possible euthanasia. Scheduled euthanasia of the animals was conducted on day 86 approximately 48 hours after the last dose by exsanguination while under deep anesthesia. The protocols described in the Example were approved by the Institutional Animal Care and Use Committee (IACUC).
# To evaluate the effect of Ionis oligonucleotides on the overall health of the animals, body and organ weights were measured. Terminal body weight was measured prior to necropsy.
# [6] = cynomolgus monkey, in vivo, sc, 35 mg/kg
# [7] = Cynomolgus monkey tolerability, kidney and liver function markers (Example 34); conditions: cynomolgus monkeys, 35 mg/kg subcutaneously, day 44
Substance,"Yap1 mRNA in tumors, % control (Yap1 mRNA [1]; 25 mpk daily (5 doses)) [% control]","Yap1 mRNA in tumors, % control (Yap1 mRNA [1]; 50 mpk daily (5 doses)) [% control]",% UTC (Yap1 mRNA) (Yap1 mRNA [2]; 125.0 nM),IC50 (Yap1 mRNA [2]),"Yap1 mRNA, % UTC (Yap1 mRNA [3]; 0.002 μM) [% UTC]","Yap1 mRNA, % UTC (Yap1 mRNA [3]; 0.008 μM) [% UTC]","Yap1 mRNA, % UTC (Yap1 mRNA [3]; 0.04 μM) [% UTC]","Yap1 mRNA, % UTC (Yap1 mRNA [3]; 0.2 μM) [% UTC]","Yap1 mRNA, % UTC (Yap1 mRNA [3]; 1 μM) [% UTC]",% UTC (Yap1 mRNA) (Yap1 mRNA [2]; 31.3 nM) [% UTC],% UTC (Yap1 mRNA) (Yap1 mRNA [2]; 500.0 nM) [% UTC],% UTC (Yap1 mRNA) (Yap1 mRNA [2]; 2000.00 nM) [% UTC],APTT [4] [s],FIB [4] [mg/dL],PT [4] [s],Heart weight [5] [g],Kidney weight [5] [g],Liver with gallbladder weight [5] [g],Spleen weight [5] [g],Terminal Body Weight [5] [g],also measured
715487 (kA*kT*kT*dA*d[5mC]*dT*dT*d[5mC]*dA*dT*dA*dG*d[5mC]*kT*kT*kA) [compound 715487],61,57,47 % UTC and 44 % UTC and 56 % UTC and 53 % UTC and 73 % UTC and 70 % UTC and 62 % UTC and 48 % UTC,400 nM and 300 nM and 200 nM,–,–,–,–,–,–,–,–,–,–,–,–,–,–,–,–,–
"1198439 (AGTGTATGTCAGAAGA; sugar, 5-methylcytosine, phosphorothioate modifications, further chemistry not given here) [compound 1198439]",37,19,21 % UTC,< 30 nM,0,1,11,65,93,44,5,2,19,246,10,10,15,67,3,2959,IC50 (Yap1 mRNA [3]): 20 nM; A/G ratio [6]: 1.4; ALB [7]: 4.0 g/dL; ALP [7]: 1298 IU/L; ALT [7]: 40 IU/L; AST [7]: 65 IU/L; BUN [7]: 24 mg/dL; CREA [7]: 0.9 mg/dL; GGT [7]: 63 IU/L; GLO [7]: 2.8 g/dL; GLU [7]: 115 mg/dL; HDL [7]: 82 mg/dL; LDL [7]: 59 mg/dL; TBIL [7]: 0.2 mg/dL; TG [7]: 28 mg/dL; TP [7]: 6.8 g/dL
"958499 (ATTAGAGTATGTGGCA; 3-10-3 cEt gapmer, further chemistry not given here) [compound 958499]",49,29,47 % UTC,200 nM,1,3,28,91,117,93,19,7,18,275,9,10,15,68,4,2894,IC50 (Yap1 mRNA [3]): 30 nM; A/G ratio [6]: 1.3; ALB [7]: 4.0 g/dL; ALP [7]: 1449 IU/L; ALT [7]: 67 IU/L; AST [7]: 73 IU/L; BUN [7]: 24 mg/dL; CREA [7]: 0.9 mg/dL; GGT [7]: 67 IU/L; GLO [7]: 3.2 g/dL; GLU [7]: 83 mg/dL; HDL [7]: 89 mg/dL; LDL [7]: 46 mg/dL; TBIL [7]: 0.2 mg/dL; TG [7]: 41 mg/dL; TP [7]: 7.2 g/dL
"1198440 (AAGTGTATGTCAGAAG; cEt, 2'-MOE, 5-methylcytosine, phosphorothioate modifications, further chemistry not given here) [compound 1198440]",32,21,23 % UTC,< 30 nM,0,1,14,69,96,55,6,2,20,260,10,11,15,65,3,2919,IC50 (Yap1 mRNA [3]): 20 nM; A/G ratio [6]: 1.4; ALB [7]: 4.1 g/dL; ALP [7]: 1412 IU/L; ALT [7]: 45 IU/L; AST [7]: 75 IU/L; BUN [7]: 26 mg/dL; CREA [7]: 0.9 mg/dL; GGT [7]: 80 IU/L; GLO [7]: 2.9 g/dL; GLU [7]: 91 mg/dL; HDL [7]: 104 mg/dL; LDL [7]: 54 mg/dL; TBIL [7]: 0.2 mg/dL; TG [7]: 30 mg/dL; TP [7]: 7.0 g/dL
"1076453 (GTAATATTGCAATCTG; 3-10-3 cEt gapmer, further chemistry not given here) [compound 1076453]",55,25,29 % UTC,100 nM,0,1,23,74,89,67,8,1,20,234,9,11,16,72,5,2955,A/G ratio [6]: 1.3; ALB [7]: 3.9 g/dL; ALP [7]: 1173 IU/L; ALT [7]: 53 IU/L; AST [7]: 76 IU/L; BUN [7]: 27 mg/dL; CREA [7]: 0.9 mg/dL; GGT [7]: 78 IU/L; GLO [7]: 3.1 g/dL; GLU [7]: 89 mg/dL; HDL [7]: 98 mg/dL; LDL [7]: 66 mg/dL; TBIL [7]: 0.2 mg/dL; TG [7]: 29 mg/dL; TP [7]: 7.0 g/dL
